Patent publication US9789153B2, “Composition for preventing cancer and treating cancer and intensifying the effects of other anticancer drugs” (priority 2014, dated 2017)

Tested on: Cancer cells
Assay: MTT assay-A positive control group
Format: cell-based
Conditions: Triton X100 1%, positive control C2
Procedure: MTT (3-(4,5 dimethylthiazole-2-yl)-2,5-diphenyl tetrazolium bromide) is a proven cell viability indicator and this yellow colored tetrazolium salt gets reduced to purple colored formazan crystals by mitochondrial reductase enzyme seen only in metabolically active cells. It measures the cell proliferation rate and the reduction in cell viability when metabolic events lead to apoptosis or necrosis. Triplicate samples were analyzed and cell viability was calculated in percentage with respect to negative control group as follows Cell viability (%)=(Nt/Nc)×100 Nt is the absorbance of cells treated with sample and Nc is the absorbance of untreated cells (negative control group-Cell culture medium alone). The cell survival rate of negative control group is 100%. The results of MTT assays are shown in Figures, Wherein, the horizontal axis represents concentration of test sample and the vertical axis represents the cell survival rate. […]
Cancer cells were incubated for 2 days. […] Optical density of the solution was measured at a wavelength of 570 nm using a Beckmann Coulter Elisa plate reader (BioTek Power Wave XS). […]

For Triton X100, the cells killed was “more than 90%”.
